Test results reported in US10179770B2, “Quinolines derivatives as novel anticancer agents” (GENOSCIENCE PHARMA, priority 2013, dated 2019).

Tests used:
HT29 cells = experiment: Combination study with standard chemotherapy agents, Combination Index (Chou and Talalay); type: cell-based, human; conditions: preliminary results
Experimental: Anticancer drugs were tested around their EC50 in […] cell line, The general assay procedure is the same as described in example 53 for compound XIX-3. Loewe additivity model: The experimental data are analyzed by using CalcuSyn (Biosoft, Stapleford, UK), a computer program based on the method of Chou and Talalay. Briefly, the dose-effect curves for each drug or drug combination were converted to median-effect plots with CalcuSyn. Then, a combination index (CI) value for each experimental combination was calculated on the basis of the following equation: [formula] Where for n=2 (combination of 2 compounds): D1 and D2 are the doses of drug 1 and drug 2 that have x effect when each drug is used alone d1 and d2 are the doses of drug 1 and drug 2 that have the same x effect when they are used in combination. [table] [table]

Capan-1 = experiment: Cell viability assay, pancreatic cancer cell lines; type: cell-based; conditions: Homo sapiens; Capan-1 (Pancreas); 48 h
Experimental: (§1) MiaPaCa-2, Panc-1 cells were grown in Dulbecco's modified eagle's medium (DMEM) (Gibco) supplemented with 10% fetal bovine serum (FBS), while BxPC-3, Capan-1, Capan-2 cells were grown in Roswell Park Memorial Institute 1640 (RPMI 1640) (Gibco) supplemented with 10% FBS. Gemcitabine (Gemzar) was purchased from Lilly France S.A.S (Suresnes, France). (3-(4,5-dimethylthiazol-2-yl)-2,5diphenyltetrazolium bromide, MTT) was purchased from Sigma-Aldrich.
(§2) BxPC-3, MiaPaCa-2, Panc-1 cells were seeded into a 96-well plate at 10,000 10,000 15,000 cells per well respectively, while Capan-1 and Capan-2 cells at 20,000 cells per well and allowed to adhere overnight. Then the culture medium was removed and replaced with fresh media alone as control or containing various concentrations of different compounds. In dose-dependent assay, the cells were treated with compound XIX-3 at the concentration varying from 0.1 μM to 100 μM while the cells being cultured by fresh media alone were used as control. After 48 h treatment, the number of remained viable cells was determined by (3-(4,5-dimethylthiazol-2-yl)-2,5diphenyltetrazolium bromide, MTT) colorimetric assay (see Sigma Aldrich protocol and Riss T. L. et al. Cell Viability Assays in Assay Guidance Manual 2013 ppl.). All experiments were done in duplicate and repeated two independent times.

MIA PaCa-2 = experiment: Cell viability assay, pancreatic cancer cell lines; type: cell-based; conditions: Homo sapiens; MIA PaCa-2 (Pancreas); 48 h
Experimental: as §1, §2

BxPC-3 = experiment: Cell viability assay, pancreatic cancer cell lines; type: cell-based; conditions: Homo sapiens; BxPC-3 (Pancreas); 48 h
Experimental: as §1, §2

Capan-2 = experiment: Cell viability assay, pancreatic cancer cell lines; type: cell-based; conditions: Homo sapiens; Capan-2 (Pancreas); 48 h
Experimental: as §1, §2

Panc-1 = experiment: Cell viability assay, pancreatic cancer cell lines; type: cell-based; conditions: Homo sapiens; Panc-1 (Pancreas); 48 h
Experimental: as §1, §2

B16F10 = experiment: CellTiter-Glo cell viability assay (example 57); type: cell-based, human; conditions: Mus musculus, B16-F10; B16F10 (Melanoma); Cell Titer-Glo; 72 h
HL-60 = experiment: NCI-60 screen (SRB); type: cell-based; conditions: HL-60 (Leukemia)
Method in brief: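 RPMI 1640/5% FBS/2 mM Gln; 24 h attach; Tz plates TCA-fixed at dosing; 5 conc. (10-fold or ½-log), 48 h, 37 °C, 5% CO2; SRB, A515; GI50/TGI/LC50 from Tz, C, Ti.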

SMILES: CCN(CC)C1CCN(C(C)c2cc(-c3ccccc3)nc3ccccc23)CC1.Cl.Cl (stereo not drawn) [XIX-3, 2-phenyl-4-{1-[4-(N,N-diethylamino)piperidin-1-yl]-eth-1-yl}quinoline dihydrochloride]
- Combination effect with standard chemotherapy agents (HT29 cells; HT29 cells): Synergy Effect
- Combination Index (CI) (HT29 cells; XIX-3 at 18 μM in combination with well described anticancer drugs, HT-29): < 1
- EC50 (Capan-1): 27 µM
- EC50 (MIA PaCa-2): 34 µM
- EC50 (BxPC-3): 33 µM
- EC50 (Capan-2): 32 µM
- EC50 (Panc-1): 34 µM
- EC50 (B16F10): 10 µM
- TGI (HL-60): 33 µM
- Growth percent at 10 μM (HL-60; 10 μM): ++ (cell growth 40 > % < 60)
- GI50 (HL-60; Homo sapiens): 17 µM
- CC50 (HL-60; Homo sapiens, read-out: LC50 (the source's name)): 66 µM
